How the values were obtained:
[1] = system: endotoxin induced uveitis (EIU) in mice; test: Endotoxin induced uveitis (EIU) model, CD11b+ cells in retina by flow cytometry; assay type: in vivo; settings: pretreated with 0.1, 1.0 and 10.0 mM eyedrops twice daily for 3 days before LPS, eyes harvested 24 hours later (FIG. 2)
Procedure: EIU is a more acute form of anterior uveitis, induced by intraperitoneal immunization with LPS (endotoxin), and clinical signs of uveitis can be observed within 24-48 hours post immunisation. Due to the narrow time frame of disease, in our study mice (n=2 per group) were pretreated with three different concentrations of JNJ777120 compound (0.1, 1.0 and 10.0 mM) given twice daily as eyedrops for 3 days prior to inducing EIU, and eyes harvested 24 hours later. In this study, retinas were dissected from each eye and single cell suspensions prepared for staining with CD11b (to stain for granulocytes), and analysed by flow cytometry, Each eye was kept separate, so results are shown as means of 4 retinae in each group, in comparison with 6 eyes from 3 EIU non-treated control mice.

[2] = system: experimental autoimmune uveitis (EAU) in C57B1/6 mice; test: Experimental autoimmune uveitis (EAU) model, therapeutic treatment, histological scoring; assay type: in vivo; settings: EAU C57B1/6 mice, disease established, 5 doses, eyes harvested day 19 (FIG. 1)
Source text: Whilst CD4+T cells are crucial for disease induction, it is now established in the literature (see Dick et al 2012) that tissue resident cells (microglia, macrophages) and infiltrating inflammatory cells (CD11b+granulocytes) contribute to the perpetuation of the inflammation in the C57BL/6 mouse, where evidence of retinal inflammation can be observed up to day 56 post immunization. In our study EAU was induced in C57B1/6 mice using subcutaneous administration of IRBP peptide emulsified in complete Freund's adjuvant (CFA) supplemented with […] mycobacterium, and intraperitoneal immunisation with Pertussis toxin. Clinical signs of EAU disease were monitored using non-invasive retinal fundus imaging (TEFI) until signs of retinal inflammatory disease were observed (usually by day 14). At this point mice were divided into treatment groups. A total of 45 mice were used, with groups as follows: CFA controls n=4; EAU controls n=6; JNJ 7777120 16 mg/kg n=5; 994 10 mg/kg n=5; 994 30 mg/kg n=5; 994 100 mg/kg n=5; 1006 10 mg/kg n=5; 1006 30 mg/kg n=5; 1006 100 mg/kg n=5. Each treatment group of mice received 5 intraperitoneal doses of compound, once per day, until day 19 when eyes were harvested. At this point eyes were processed and fixed, and histological sections were prepared. Histological scoring by light microscopy was done according to established methods (Gegg et al, 2005) where a score of 1.0 reflects inflammatory cells present in the vitreous cavity but not throughout the retinal layers, and the photoreceptor layer is as normal. A score of 2.0 reflects cells within the outer retinal layers, with some granuloma formation. A score of 3.0 reflects cells within the photoreceptor layer, some retinal folding, a focal loss of photoreceptor cells. […] This is an impressive effect since disease was already established. In most treatment studies mice are pretreated with drug prior to inducing EAU.

SMILES: CN1CCN(C(=O)c2cc3cc(Cl)ccc3[nH]2)CC1 [JNJ7777120, 1-[(5-chloro-1H-indol-2-yl)carbonyl]-4-methylpiperazine]
- levels of infiltrating granulocytes (numbers of CD11b+ cells in retina) [1]: significantly decreased the levels of infiltrating granulocytes
- histological scores (retinal inflammation, light microscopy) ([2]; 16 mg/kg i.p. once per day): reduced the histological scores to control levels

SMILES: Cc1ccc(CNc2cc(N3CCN(C)CC3)nc(N)n2)cc1.O=C(O)/C=C\C(=O)O [compound 994]
- histological scores (retinal inflammation, light microscopy) ([2]; 100 mg/kg i.p. once per day): reduced the histological scores to control levels

SMILES: CN1CCN(c2cc(NCc3c(Cl)cccc3Cl)nc(N)n2)CC1.O=C(O)/C=C\C(=O)O [compound 1006]
- histological scores (retinal inflammation, light microscopy) ([2]; 30 mg/kg i.p. once per day): reduced the histological scores to control levels
